Source: patent US4865619A, “Use, as a coupler, of 2,4-diamino-1,3-dimethoxybenzene or one of its salts, in combination with oxidation dye precursors, for dyeing human hair, hair dyeing composition containing the said coupler and process for preparing the said coupler” (L'Oreal, priority 1987, dated 1989)

Assays:
[1] = mutagenicity (coupler stated to be nonmutagenic)
[2] = coloration of hair by the coupler in combination with oxidation dye precursors, oxidizing alkaline medium; parameters: species or system human
Method: According to this process, the dyeing composition described above is mixed at the time of use with a sufficient quantity of an oxidizing solution, and the mixture obtained is then applied on the hair.
The oxidizing solution contains oxidizing agents such as hydrogen peroxide, urea peroxide or persalts such as ammonium persulphate. "20 volumes" hydrogen peroxide solution is preferably used.
The mixture obtained is applied on the hair; it is left in place for 10 to 40 minutes, preferably 15 to 30 minutes, after which the hair is rinsed, washed with shampoo, rinsed again and dried.

COc1ccc(N)c(OC)c1N [2,4-diamino-1,3-dimethoxybenzene]
mutagenicity [1]: nonmutagenic
stability of the hues to light, inclement weather and washing ([2]; para-aminophenols, after development in the presence of an oxidizing agent): especially stable to light, to inclement weather and to washing
stability of the colorations ([2]; red colorations, in combination with p-aminophenols, oxidizing alkaline medium): good stability
